The target in experiment [1] is T1, HCV NS3/4A protease complex (UniProt P27958, C1454S/C1711G, species not given).
T1 construct: fused on or other part: Three-lysine solubilising tail at the C-terminus of NS4A
As to the kind of experiment: Recombinant HCV NS3/4A protease complex FRET peptide assay (strain not stated). The conditions noted are these: HCV NS3/4A protease enzyme assay, read-out: IC50 range. In kind it is biochemical.

In experiment [2] the test system is HCV replicon in Huh7 cells. As to the kind of experiment: HCV replicon cell-based assay. The arrangement: species or system HCV strain 1B. The conditions noted are these: Hepatitis C virus, Huh-7, 96 h, HCV replicon, 4 days, read-out: EC50 range. An outline of the steps:
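Huh7 cells carrying a genotype 1b subgenomic replicon (NS3-NS5B, neo) treated 4 days at 37° C with compound (0.5% DMSO final). NS3 protease activity read in lysates with 10 μM FRET peptide (340/490 nm, kinetic), giving EC50. Confirmed by Taqman qRT-PCR of HCV RNA and a Renilla luciferase replicon.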

Structures are written as SMILES.

Regarding `C=CC1C[C@]1(NC(=O)[C@@H]1C[C@@H](OC(=O)Nc2cc(C)ccc2-n2cccc2)CN1C(=O)[C@@H](NC(=O)OC(C)(C)C)C(C)(C)C)C(=O)NS(=O)(=O)C1CC1` (stereo partly drawn) [Compound 83, BocNH-P3(t-BuGly)-P2(Hyp(O—CO(NH—(5-Methyl-2-pyrrol-1-yl-phenyl))))-P1(1R,2S VinylAcca)—CONHSO2Cyclopropane], in experiment [1], the IC50 is less than 100 nM. Besides, in experiment [2], the EC50 was less than 100 nM.
As to `C=CC1C[C@]1(NC(=O)[C@@H]1C[C@@H](OC(=O)Nc2cc(C(F)(F)F)ccc2N2CCCC2)CN1C(=O)[C@@H](NC(=O)OC(C)(C)C)C(C)(C)C)C(=O)NS(=O)(=O)C1CC1` (stereo partly drawn) [Compound 84, BocNH-P3(t-BuGly)-P2(Hyp(O—CO(NH—(2-Pyrrolidin-1-yl-5-trifluoromethyl-phenyl))))-P1(1R,2S VinylAcca)—CONHSO2Cyclopropane], the IC50 in experiment [1] is less than 100 nM. Also, in experiment [2], the EC50 was in the range of 100 to 1000 nM.
On the same counts, the results for `C=CC1C[C@]1(NC(=O)[C@@H]1C[C@@H](OC(=O)Nc2cc(C(F)(F)F)ccc2-n2cccc2)CN1C(=O)[C@@H](NC(=O)OC(C)(C)C)C(C)(C)C)C(=O)NS(=O)(=O)C1CC1` (stereo partly drawn) [Compound 85] are less than 100 nM and 100 to 1000 nM.
`C=CC1C[C@]1(NC(=O)[C@@H]1C[C@@H](OC(=O)Nc2ccccc2-n2cccc2)CN1C(=O)[C@@H](NC(=O)OC(C)(C)C)C(C)(C)C)C(=O)NS(=O)(=O)C1CC1` (stereo partly drawn) [Compound 86, BocNH-P3(t-BuGly)-P2(Hyp(O—CO(NH—(2-pyrrol-1-yl-phenyl))))-P1(1R,2S VinylAcca)—CONHSO2Cyclopropane]: in experiment [1], the IC50 was less than 100 nM. In addition, in experiment [2], the EC50 fell in the range of 100 to 1000 nM.
For `C=CC1C[C@]1(NC(=O)[C@@H]1C[C@@H](OC(=O)Nc2ccccc2-n2nc3cc(OC)c(OC)cc3n2)CN1C(=O)[C@@H](NC(=O)OC(C)(C)C)C(C)(C)C)C(=O)NS(=O)(=O)C1CC1` (stereo partly drawn) [Compound 87, BocNH-P3(t-BuGly)-P2(Hyp(O—CO(NH—(2-(5,6-Dimethoxy-benzotriazol-2-yl)-phenyl))))-P1(1R,2S VinylAcca)—CONHSO2Cyclopropane] the same measures were less than 100 nM and less than 100 nM.
On the same counts, the results for `C=CC1C[C@]1(NC(=O)[C@@H]1C[C@@H](OC(=O)Nc2ccccc2-c2nnc[nH]2)CN1C(=O)[C@@H](NC(=O)OC(C)(C)C)C(C)(C)C)C(=O)NS(=O)(=O)C1CC1` (stereo partly drawn) [Compound 88, BocNH-P3(t-BuGly)-P2(Hyp(O—CO(NH—(2-(4H-[1,2,4]Triazol-3-yl)-phenyl))))-P1(1R,2S VinylAcca)—CONHSO2Cyclopropane] are less than 100 nM and more than 10000 nM.
For the molecule `C=CC1C[C@]1(NC(=O)[C@@H]1C[C@@H](OC(=O)Nc2ccccc2-n2cccn2)CN1C(=O)[C@@H](NC(=O)OC(C)(C)C)C(C)(C)C)C(=O)NS(=O)(=O)C1CC1` (stereo partly drawn) [Compound 89, BocNH-P3(t-BuGly)-P2(Hyp(O—CO(NH—(2-Pyrazol-1-yl-phenyl))))-P1(1R,2S VinylAcca)—CONHSO2Cyclopropane], in experiment [1], the IC50 was less than 100 nM. The EC50 in experiment [2] lay in the range of 100 to 1000 nM.
Turning to `C=CC1C[C@]1(NC(=O)[C@@H]1C[C@@H](OC(=O)Nc2ccccc2N2CCCCC2)CN1C(=O)[C@@H](NC(=O)OC(C)(C)C)C(C)(C)C)C(=O)NS(=O)(=O)C1CC1` (stereo partly drawn) [Compound 90, BocNH-P3(t-BuGly)-P2(Hyp(O—CO(NH—(2-Piperidin-1-yl-phenyl))))-P1(1R,2S VinylAcca)—CONHSO2Cyclopropane], the IC50 in experiment [1] was less than 100 nM. The EC50 in experiment [2] was less than 100 nM.
As for `C=CC1C[C@]1(NC(=O)[C@@H]1C[C@@H](OC(=O)Nc2cc(C(=O)OCC)ccc2N2CCCCC2)CN1C(=O)[C@@H](NC(=O)OC(C)(C)C)C(C)(C)C)C(=O)NS(=O)(=O)C1CC1` (stereo partly drawn) [Compound 91, BocNH-P3(t-BuGly)-P2(Hyp(O—CO(NH—(5-carboxyethyl-2-piperidin-1-ylphenyl))))-P1(1R,2S VinylAcca)—CONHSO2Cyclopropane], the IC50 in experiment [1] was less than 100 nM. Besides, the EC50 in experiment [2] fell in the range of 100 to 1000 nM.
`C=CC1C[C@]1(NC(=O)[C@@H]1C[C@@H](OC(=O)Nc2cc(C(F)(F)F)ccc2N2CCC(C(F)(F)F)CC2)CN1C(=O)[C@@H](NC(=O)OC(C)(C)C)C(C)(C)C)C(=O)NS(=O)(=O)C1CC1` (stereo partly drawn) [Compound 92, BocNH-P3(t-BuGly)-P2(Hyp(O—CO(NH—(5-Trifluoromethyl-2-(4-trifluoromethyl-piperidin-1-yl)-phenyl))))-P1(1R,2S VinylAcca)—CONHSO2Cyclopropane]: the IC50 in experiment [1] is less than 100 nM. Moreover, in experiment [2], the EC50 is less than 100 nM.
In the case of `C=CC1C[C@]1(NC(=O)[C@@H]1C[C@@H](OC(=O)Nc2ccccc2-n2nccn2)CN1C(=O)[C@@H](NC(=O)OC(C)(C)C)C(C)(C)C)C(=O)NS(=O)(=O)C1CC1` (stereo partly drawn) [Compound 93, BocNH-P3(t-BuGly)-P2(Hyp(O—CO(NH—(2-[1,2,3]Triazol-2-yl-phenyl))))-P1(1R,2S VinylAcca)—CONHSO2Cyclopropane], in experiment [1], the concentration for half-maximal inhibition (IC50) is less than 100 nM. Further, the EC50 in experiment [2] lay within 100 to 1000 nM.
With `C=CC1C[C@]1(NC(=O)[C@@H]1C[C@@H](OC(=O)Nc2cc(C)ccc2-c2nccs2)CN1C(=O)[C@@H](NC(=O)OC(C)(C)C)C(C)(C)C)C(=O)NS(=O)(=O)C1CC1` (stereo partly drawn) [Compound 94, BocNH-P3(t-BuGly)-P2(Hyp(O—CO(NH—(5-Methyl-2-thiazol-2-yl-phenyl))))-P1(1R,2S VinylAcca)—CONHSO2Cyclopropane], in experiment [1], the IC50 was less than 100 nM. Besides, the EC50 in experiment [2] was less than 100 nM.
As for `C=CC1C[C@]1(NC(=O)[C@@H]1C[C@@H](OC(=O)Nc2cc(OC)ccc2-n2cccn2)CN1C(=O)[C@@H](NC(=O)OC(C)(C)C)C(C)(C)C)C(=O)NS(=O)(=O)C1CC1` (stereo partly drawn) [Compound 95, BocNH-P3(t-BuGly)-P2(Hyp(O—CO(NH—(5-Methoxy-2-pyrazol-1-yl-phenyl))))-P1(1R,2S VinylAcca)—CONHSO2Cyclopropane], the IC50 in experiment [1] is less than 100 nM. The EC50 in experiment [2] was 100 to 1000 nM.
On the same counts, the results for `C=CC1C[C@]1(NC(=O)[C@@H]1C[C@@H](OC(=O)Nc2cc(C)ccc2-n2cccn2)CN1C(=O)[C@@H](NC(=O)OC(C)(C)C)C(C)(C)C)C(=O)NS(=O)(=O)C1CC1` (stereo partly drawn) [Compound 96, BocNH-P3(t-BuGly)-P2(Hyp(O—CO(NH—(5-Methyl-2-pyrazol-1-yl-phenyl))))-P1(1R,2S VinylAcca)—CONHSO2Cyclopropane] are less than 100 nM and less than 100 nM.
For `C=CC1C[C@]1(NC(=O)[C@@H]1C[C@@H](OC(=O)Nc2cc(C)ccc2-n2nccn2)CN1C(=O)[C@@H](NC(=O)OC(C)(C)C)C(C)(C)C)C(=O)NS(=O)(=O)C1CC1` (stereo partly drawn) [Compound 97, BocNH-P3(t-BuGly)-P2(Hyp(O—CO(NH—(5-Methyl-2-[1,2,3]triazol-2-yl-phenyl))))-P1(1R,2S VinylAcca)—CONHSO2Cyclopropane] the same measures were less than 100 nM and less than 100 nM.
On the same counts, the results for `C=CC1C[C@]1(NC(=O)[C@@H]1C[C@@H](OC(=O)Nc2cc(C#N)ccc2-n2cccn2)CN1C(=O)[C@@H](NC(=O)OC(C)(C)C)C(C)(C)C)C(=O)NS(=O)(=O)C1CC1` (stereo partly drawn) [Compound 98, BocNH-P3(t-BuGly)-P2(Hyp(O—CO(NH—(5-Cyano-2-pyrazol-1-yl-phenyl))))-P1(1R,2S VinylAcca)—CONHSO2Cyclopropane] are less than 100 nM and less than 100 nM.
On to `C=CC1C[C@]1(NC(=O)[C@@H]1C[C@@H](OC(=O)Nc2cc(F)ccc2-n2cccn2)CN1C(=O)[C@@H](NC(=O)OC(C)(C)C)C(C)(C)C)C(=O)NS(=O)(=O)C1CC1` (stereo partly drawn) [Compound 99, BocNH-P3(t-BuGly)-P2(Hyp(O—CO(NH—(5-Fluoro-2-pyrazol-1-yl-phenyl))))-P1(1R,2S VinylAcca)—CONHSO2Cyclopropane], for which the IC50 in experiment [1] is less than 100 nM. For the same molecule, the EC50 in experiment [2] was less than 100 nM.
Regarding `C=C[C@@H]1C[C@]1(NC(=O)[C@@H]1C[C@@H](OC(=O)Nc2cc(C(F)(F)F)ccc2-n2cccn2)CN1C(=O)[C@@H](NC(=O)OC(C)(C)C)C(C)(C)C)C(=O)NS(=O)(=O)C1CC1` [Compound 100, BocNH-P3(t-BuGly)-P2(Hyp(O—CO(NH—(5-trifluoromethyl-2-pyrazol-1-yl-phenyl))))-P1(1R,2S VinylAcca)—CONHSO2Cyclopropane], in experiment [1], the IC50 was less than 100 nM. Also, the EC50 in experiment [2] is less than 100 nM.
For the molecule `C=C[C@@H]1C[C@]1(NC(=O)[C@@H]1C[C@@H](OC(=O)N2CCc3ccccc3C2)CN1C(=O)[C@@H](NCC1CC1)C(C)(C)C)C(=O)NS(=O)(=O)C1CC1` [Compound 101], the half-maximal inhibitory concentration (IC50) in experiment [1] was less than 100 nM. Further, the EC50 in experiment [2] was 1000 to 10000 nM.
For `C=C[C@@H]1C[C@]1(NC(=O)[C@@H]1C[C@@H](OC(=O)Nc2ccccc2C(=O)OCC)CN1C(=O)[C@@H](NC(=O)OC)C(C)(C)C)C(=O)NS(=O)(=O)C1CC1` [Compound 110] the same measures were less than 100 nM and 100 to 1000 nM.
As for `C=C[C@@H]1C[C@]1(NC(=O)[C@@H]1C[C@@H](OC(=O)Nc2ccccc2C(=O)OCC)CN1C(=O)[C@@H](NC(=O)OCC)C(C)(C)C)C(=O)NS(=O)(=O)C1CC1` [Compound 111], in experiment [1], the IC50 was less than 100 nM. Moreover, the EC50 in experiment [2] fell in the range of 100 to 1000 nM.

The term IC50 denotes the midpoint of a concentration-inhibition curve. In general, EC50 refers to the concentration giving half of the maximal effect.

These data come from US7041698B2, “Hepatitis C virus inhibitors” (Bristol-Myers Squibb Company, priority 2002, dated 2006).
